Test results from the RepoRT retention time repository (doi:10.1021/acs.analchem.1c00972).

Experiments:
[1] = RP, Waters ACQUITY UPLC BEH C18, 100 × 1 mm, 1.7 µm, 50 °C, 0.3 mL/min, estimated dead time 0.17 min; A: water + 10 mM ammonium bicarbonate; B: 10% water + 90% methanol + 10 mM ammonium bicarbonate; gradient (min/%B) 0/0 15/100 21/100 22/0 30/0; conditions: stereoisomer not certain
[2] = RP, Waters ACQUITY UPLC BEH C18, 100 × 1 mm, 1.7 µm, 50 °C, 0.3 mL/min, estimated dead time 0.17 min; A: water + 0.1% formic acid + 20 mM ammonium formate; B: methanol + 0.1% formic acid + 20 mM ammonium formate; gradient (min/%B) 0/0 15/100 21/100 22/0 30/0; conditions: stereoisomer not certain

Row | LC retention time [1] | LC retention time [2] | SMILES
1 | 9.63 min | 9.49 min | CN(C)C(=S)SC(=S)N(C)C [Tetramethylthiuram monosulfide]
2 | 14.5 min | 9.31 min | NC(=O)C1(N2CCCCC2)CCN(CCCC(=O)c2ccc(F)cc2)CC1 [Pipamperone]
3 | 15.1 min | 13.2 min | CC(C)(C)C(=O)C(Oc1ccc(Cl)cc1)n1ccnc1 (configuration not stated) [Climbazole]
4 | 15.2 min | 8.08 min | CCCN(CCC)CCc1cccc2c1CC(=O)N2 [Ropinirole]
5 | 10.2 min | 7.51 min | CC(C)NCC(O)COc1cccc2[nH]ccc12 (configuration not stated) [Pindolol]
6 | 10.4 min | 11.5 min | COc1ccc(CCC(=O)c2c(O)cc(OC3OC(CO)C(O)C(O)C3OC3OC(C)C(O)C(O)C3O)cc2O)cc1O (configuration not stated) [Neohesperidin DC]
7 | 18.1 min | 17.7 min | CCCCCCCCCCSCCOCCO [2(2(decylsulfanyl)ethoxy)ethanol]
8 | 17.2 min | 16.8 min | CCC(C)C(=O)OC1CC(C)C=C2C=CC(C)C(CCC3CC(O)CC(=O)O3)C21 (configuration not stated) [Lovastatin]
9 | 12.3 min | 9.73 min | COc1cc2nc(N(C)CCCNC(=O)C3CCCO3)nc(N)c2cc1OC (configuration not stated) [Alfuzosin]
10 | 8.91 min | 11.8 min | CC1CCc2cc(F)cc3c(=O)c(C(=O)O)cn1c23 (configuration not stated) [Flumequine]
11 | 14.5 min | 15.6 min | CON=C(C(=O)O)c1ccccc1CON=C(C)c1cccc(C(F)(F)F)c1
12 | 14.3 min | 19.2 min | CC(CCC(=O)O)C1CCC2C3C(=O)CC4CC(O)CCC4(C)C3CCC12C (configuration not stated) [7-Oxolithocholic acid]
13 | 17 min | 16.6 min | Cc1cccc(N(C)C(=S)Oc2ccc3ccccc3c2)c1 [Tolnaftate]
14 | 11.6 min | 11.4 min | CCNS(=O)(=O)c1ccccc1C [N-Ethyl-o-toluenesulfonamide]
15 | 10.2 min | 14.2 min | CCCC(CCC)C(=O)O [Valproic acid]
16 | 19.2 min | 16.1 min | CCC1CCCC(OC2CCC(N(C)C)C(C)O2)C(C)C(=O)C2=CC3C(C=C(C)C4CC(OC5OC(C)C(OC)C(OC)C5OC)CC43)C2CC(=O)O1 (single isomer, unassigned; isomer 2) [Spinosad (Isomer 2)]

Row | SMILES | LC retention time [1] | LC retention time [2]
17 | O=NN1CCOCC1 [N-Nitrosomorpholine] | 3.78 min | 3.69 min
18 | CNC1(c2ccccc2Cl)CCCCC1=O (configuration not stated) [Ketamine] | 13.5 min | 8.96 min
19 | Oc1c(Cl)cc(-c2ccc(Cl)cc2)cc1Cl [4-Hydroxy-3,4',5-trichlorobiphenyl] | 15.2 min | 16.9 min
20 | C=C1C(=O)OC2CC[N+]3([O-])CC=C(COC(=O)C(C)(O)C(C)C1C)C23 (configuration not stated) [Senecivernine N-oxide] | 9.7 min | 8.69 min
21 | O=C1CC2OCC=C3CN4CCC56c7ccccc7N1C5C2C3CC46 (single isomer, unassigned; (-)) [(-)-Strychnine] | 12.3 min | 7.73 min
22 | O=C(O)COc1ccc(Cl)cc1Cl [2,4-Dichlorophenoxyacetic acid] | 10.6 min | 12.9 min
23 | CC(=O)c1cc2c(cc1C)C(C)(C)C(C)C2(C)C (configuration not stated) [Phantolide] | 17.9 min | 17.5 min
24 | COc1ccc2c(c1)[nH]c1c(C)nccc12 [Harmine] | 13.5 min | 9.88 min
25 | Oc1ccc(C(c2ccc(O)cc2)(C(F)(F)F)C(F)(F)F)cc1 [Bisphenol AF] | 14.7 min | 15.9 min
26 | COP(=S)(OC)Oc1ccc(Sc2ccc(OP(=S)(OC)OC)cc2)cc1 [Temephos] | 17.2 min | 16.8 min
